Measured values from ChEMBL document CHEMBL1135046, “Synthesis of an alpha-aminophosphonate nucleoside as an inhibitor of S-adenosyl-L-homocysteine hydrolase” (Bioorg Med Chem Lett, 2002).

T1: Adenosylhomocysteinase (Rattus norvegicus, UniProt P10760)
T1 sequence (P10760 whole entry): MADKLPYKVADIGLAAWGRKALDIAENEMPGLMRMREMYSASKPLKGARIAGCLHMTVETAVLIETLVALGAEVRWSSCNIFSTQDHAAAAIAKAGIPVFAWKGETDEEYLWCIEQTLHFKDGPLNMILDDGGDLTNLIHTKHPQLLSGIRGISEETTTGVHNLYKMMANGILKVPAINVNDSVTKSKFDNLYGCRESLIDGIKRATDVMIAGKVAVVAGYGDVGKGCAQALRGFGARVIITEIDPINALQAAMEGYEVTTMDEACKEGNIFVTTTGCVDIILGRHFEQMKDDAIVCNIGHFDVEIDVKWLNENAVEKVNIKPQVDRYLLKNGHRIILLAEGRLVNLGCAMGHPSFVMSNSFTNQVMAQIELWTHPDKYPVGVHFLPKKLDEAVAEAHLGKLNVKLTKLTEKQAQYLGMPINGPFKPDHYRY

T2: Adenosylhomocysteinase (Rattus norvegicus) (UniProt P10760)
T2 sequence (whole entry): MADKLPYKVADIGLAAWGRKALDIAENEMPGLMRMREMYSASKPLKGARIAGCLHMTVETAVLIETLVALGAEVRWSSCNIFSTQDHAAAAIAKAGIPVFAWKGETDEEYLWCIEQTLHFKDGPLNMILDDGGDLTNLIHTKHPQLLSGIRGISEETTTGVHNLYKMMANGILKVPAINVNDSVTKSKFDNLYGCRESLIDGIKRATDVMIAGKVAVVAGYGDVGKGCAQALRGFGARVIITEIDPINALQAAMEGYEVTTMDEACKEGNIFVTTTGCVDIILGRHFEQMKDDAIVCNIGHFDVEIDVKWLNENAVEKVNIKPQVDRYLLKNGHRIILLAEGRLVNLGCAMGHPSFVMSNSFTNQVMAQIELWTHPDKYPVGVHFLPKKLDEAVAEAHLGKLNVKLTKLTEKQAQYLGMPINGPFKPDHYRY


How the values were obtained:
[1] = biological target: T1, Adenosylhomocysteinase; test: (§1) Inhibition constant for the compound was determined against the recombinant rat liver AdoHyc hydrolase (MV1304/pUCSAH)
[2] = biological target: T2, Adenosylhomocysteinase (Rattus norvegicus); test: as §1
[3] = substrate: Nc1ncnc2c1ncn2[C@@H]1O[C@H](CSCC[C@H](N)C(=O)O)[C@@H](O)[C@H]1O
Description: Km for the compound was determined against the recombinant rat liver AdoHyc hydrolase (MV1304/pUCSAH)

Molecule	Ki [1] [µM]	K inact [2] [min⁻¹]	Km [3] [µM]
Nc1ncnc2c1ncn2C1OC(CSCC[C@H](N)C(=O)O)[C@@H](O)[C@H]1O (stereo in doubt; form 1) [listing 1 of 2 here]	1090	–	–
CC(C)CSC[C@H]1OC(n2cnc3c(N)ncnc32)[C@H](O)[C@@H]1O (some centres not stated)	105	0.0488	–
Adenosylhomocysteinase (Rattus norvegicus), P10760 (protein) MADKLPYKVADIGLAAWGRKALDIAENEMPGLMRMREMYSASKPLKGARIAGCLHMTVETAVLIETLVALGAEVRWSSCNIFSTQDHAAAAIAKAGIPVFAWKGETDEEYLWCIEQTLHFKDGPLNMILDDGGDLTNLIHTKHPQLLSGIRGISEETTTGVHNLYKMMANGILKVPAINVNDSVTKSKFDNLYGCRESLIDGIKRATDVMIAGKVAVVAGYGDVGKGCAQALRGFGARVIITEIDPINALQAAMEGYEVTTMDEACKEGNIFVTTTGCVDIILGRHFEQMKDDAIVCNIGHFDVEIDVKWLNENAVEKVNIKPQVDRYLLKNGHRIILLAEGRLVNLGCAMGHPSFVMSNSFTNQVMAQIELWTHPDKYPVGVHFLPKKLDEAVAEAHLGKLNVKLTKLTEKQAQYLGMPINGPFKPDHYRY	–	–	9.7

Continued, in another order:

Ki [1] [µM]	K inact [2] [min⁻¹]	Molecule	Km [3] [µM]
345	–	Nc1ncnc2c1ncn2C1OC(CSCC[C@H](N)C(=O)O)[C@@H](O)[C@H]1O (stereo in doubt; form 2) [listing 1 of 2 here]	–
–	0.0049	Nc1ncnc2c1ncn2C1OC(CSCC[C@H](N)C(=O)O)[C@@H](O)[C@H]1O (stereo in doubt; form 2) [listing 2 of 2 here]	–
–	0.0145	Nc1ncnc2c1ncn2C1OC(CSCC[C@H](N)C(=O)O)[C@@H](O)[C@H]1O (stereo in doubt; form 1) [listing 2 of 2 here]	–
